Measured values as given in patent publication US20090286731A1, “METHODS AND COMPOSITIONS FOR THE TREATMENT OF XEROSTOMIA” (THE REGENTS OF THE UNIVERSITY OF COLORADO, A BODY CORPORATE, priority 2006, published 2009).

Columns and labels:
[1] = test system: primary salivary acinar cells; test: Induction of apoptosis in primary salivary acinar cells (caspase-3 activity); format: cell-based, mouse
Method: In FIG. 3A, all adherent and nonadherent primary parotid acinar cells were collected and lysed in caspase lysis buffer (BioMol QuantiZyme Colormetric Assay kit) and 15 μg of cell lysate was used to analyze the level of enzyme activity for each sample in quadruplicate. The ability of the enzyme to cleave a chromogenic substrate was read at A405 every ten minutes for seven hours and the -fold increase relative to untreated parotid cells is plotted. […] In FIG. 3B, primary submandibular acinar cells were collected in caspase lysis buffer as described above and the -fold increase relative to untreated submandibular cells is plotted. […] Graphs of caspase activity represent all data points collected from five independent experiments and Student's t-test p values were calculated using Microsoft Excel comparing two different treatment groups.
Generation and cultivation of primary salivary acinar cells. Primary salivary acinar cells were prepared from 4-5 week old female FVB or myr-Akt1 transgenic mice. […]
Induction and quantitation of apoptosis. […] Activation of caspase 3 was quantitated using BioMol QuantiZyme Colormetric Assay kit (Plymouth Meeting, Pa.). […] Caspase-3 activity in 15 μg of cellular lysate was measured by the cleavage of Ac-DEVD-pNA substrate and absorbance at A405 was quantitated in a microtiter plate reader (Molecular Devices) at 10-minute intervals for 7 hrs.

ATM and Chk1 = test: Phosphorylation of ATM, Chk1 and p53 in myr-Akt1 primary salivary acinar cells (immunoblot); format: cell-based, mouse; conditions: with or without siRNA that targeted MDM2
Method: In FIG. 9A, primary salivary acinar cells isolated from myr-Akt1 mice were transfected with various control or MDM2 specific siRNA molecules. Cell lysates were collected 24-72 hrs after transfection and immunoblotted with an anti-MDM2 antibody (top panel) or anti-p53 (DO12, middle panel). […] In lanes 6 and 7, primary salivary acinar cells isolated from myr-Akt1 mice were transfected with siRNA molecules targeting MDM2 for 48 hrs.
Immunoblotting. Tissues were lysed in RIPA (150 mM NaCl, 50 mM Tris, pH 7.4, 2 mM EGTA, 1% Triton X-100, 0.25% sodium deoxycholate) supplemented with protease inhibitor cocktail (Sigma Chemical Company, St. Louis, Mo.), 100 μg/ml phenylmethylsulfonyl fluoride, and 100 U/ml aprotinin (Pierce Chemical Company, Rockford, Ill.). […] Primary salivary acinar cells were lysed in JNK lysis buffer (25 mM HEPES, pH 7.5, 20 mM β-glycerophosphate, 0.1 mM sodium orthovandadate, 0.1% Triton X-100, 0.3M NaCl, 1.5 mM MgCl2, 0.2 mM EDTA, 0.5 mM dithiothreitol, and 10 mM NaF) supplemented with aprotinin (4 μg/ml), Prefebloc (0.5 mg/ml), and leupeptin (2 μg/ml) (Pierce Chemical Company) and 1 mM sodium orthovandate, and the lysates clarified by centrifugation at 4° C. for 30 min at 13,000 rpm in a refrigerated Savant microcentrifuge (Anderson et al., 1999). Protein concentrations were determined using the BCA Protein Assay Kit (Pierce Chemical Company). […]

salivary acinar cells [2] = test: Activated caspase-3 staining of irradiated salivary glands (apoptotic cells); format: in vivo; conditions: pretreatment of mice with IGF1
Method: Activated caspase-3 staining. Salivary glands were removed at various time points post-irradiation, fixed in 10% neutral buffered formalin, and then embedded in paraffin. Slides were stained for activated caspase-3 (Cell Signaling #9661; Beverly, Mass.) as previously described (Humphries et al., 2006). Cell counts were performed on a minimum of five fields of view per slide from three mice (total cells counted ranged from 1800-2500 per mouse).

FVB mice = test: Salivary flow rate after head and neck γ-irradiation (carbachol-stimulated saliva collection); format: in vivo
Method: FIG. 11—Rescue of salivary flow rates 3 days after single γ-irradiation exposure in Myr-Akt1 mice. Four-week old female FVB and myr-Akt1 mice were exposed to 1, 2, or 5Gy γ-irradiation. Three days after irradiation total saliva was collected (over a five-minute period) following carbachol injection. Statistical analysis was performed using Student's t-test in Microsoft Excel.
(§1) FIGS. 12A-C—IGF1 activation of Akt in vivo and rescue of salivary flow rates 3 days after single γ-irradiation exposure. (FIG. 12A) FVB mice received an injection of 1, 5, 10, or 50 ng/ml recombinant IGF1. Tissue lysates were collected for immunoblotting five minutes after injection and membranes were probed for activation of Akt using a phosphorylation specific antibody. (FIG. 12B) FVB mice received an injection of 5 μg/ml recombinant IGF1 and tissue lysates were collected for immunoblotting 0, 5, 10 or 30 min after injection. Membranes were probed for activated Akt as described in FIG. 12A. Membranes were stripped and re-probed with a total antibody against ERK1/2 as a loading control in both A and B. (FIG. 12C) Four-week old female FVB mice were injected with 5 μg/ml recombinant IGF1 immediately prior to treatment with 1Gy γ-irradiation. Total saliva was collected following carbachol injection as described in FIG. 11 three days after radiation exposure. For Untreated, N=10; for IGF1, N=5; for 1 Gy, N=10, and for 1 Gy+IGF1, N=7. Statistical analysis was performed using Student's t-test in Microsoft Excel.
FIG. 13—Rescue of salivary flow rates 30 days after single γ-irradiation exposure by Myr-Akt1 or injection with IGF1. Four-week old female FVB, myr-Akt1 and FVB mice injected with 5 μg/ml recombinant IGF1 were exposed to 1Gy γ-irradiation. IGF1 injections were performed immediately prior to radiation exposure as described in FIGS. 12A-C. Thirty days after exposure to γ-irradiation total saliva was collected following carbachol injection as described in FIG. 11. For unirradiated, untreated, N=8; for unirradiated myr-Akt1, N=8; for unirradiated IGF1 injected, N=8; for 1 Gy irradiated FVB, N=8, for myr-Akt1 riiadiated with 1 Gy, N=6, for FVB that received IGF1 and I Gy, N=6. Statistical analysis was performed using multiple comparison testing in the SAS system.
γ-irradiation treatment. For in vivo experiments, four-week old female FVB and myr-Akt1 transgenic mice were anesthetized with avertin (0.4-0.6 mg/gm, IP) and the head and neck region was exposed to ionizing radiation using a RS 2000 Biological Irradiator (Humphries et al., 2006). The rest of the body was shielded with 6 mm lead foil and sheets to avoid systemic effects of γ-irradiation. […] For IGF1 injections, mice were anesthetized with avertin and tails were warmed in water to allow dilation of blood vessels. […]

Akt = test: IGF1 activation of endogenous Akt in the salivary gland after tail vein injection (anti-phospho-Akt immunoblot); format: in vivo, mice; conditions: for activation of Akt (immunoblotting with anti-phospho-Akt (threonine^473) antibody): salivary gland
Method: as §1
γ-irradiation treatment. For in vivo experiments, four-week old female FVB and myr-Akt1 transgenic mice were anesthetized with avertin (0.4-0.6 mg/gm, IP) and the head and neck region was exposed to ionizing radiation using a RS 2000 Biological Irradiator (Humphries et al., 2006). The rest of the body was shielded with 6 mm lead foil and sheets to avoid systemic effects of γ-irradiation. […] For IGF1 injections, mice were anesthetized with avertin and tails were warmed in water to allow dilation of blood vessels. Mice were injected with a total volume of 100 μl of IGF1 diluted in sterile PBS and immediately placed into the radiation chamber.
Stimulation of cells with both IGF1 and EGF produced a synergistic activation of Akt and suppression of apoptosis (Limesand et al., 2003). […] Mice were injected with 1, 5, 10, or 50 μg recombinant IGF1 and the activation of Akt was examined in the salivary gland five minutes after injection.
The inventors also determined the kinetics with which Akt was activated following injection of mice with 5 μg IGF1. Salivary glands were removed at 5, 10, and 30 minutes post-injection, tissue lysates prepared, and the activation of Akt examined by immunoblotting with anti-phospho-Akt ([…]) antibody (FIG. 12B). […] Future studies are needed to determine whether Akt remains activated for longer periods of time.

salivary acinar cells [3] = conditions: cited from earlier work

Compound	apoptosis of salivary acinar cells ([1]; cells from FVB control mice)	apoptosis (caspase-3 activation) ([1]; myr-Akt1 salivary acinar cells, 18 hrs after treatment)	phosphorylation of ATM at serine^1981 (ATM and Chk1)	number of apoptotic cells after irradiation (salivary acinar cells [2])	salivary flow rate, IGF1 alone (FVB mice; 5 μg IGF1, unirradiated mice, three days following injection)	salivary flow rate versus unirradiated FVB control mice (FVB mice; IGF1 injected, unirradiated, thirty-day time point)	irradiation-induced reduction in salivary flow rate (FVB mice; single dose of 5 μg recombinant IGF1 immediately prior to 1 Gy, three days after exposure)	decrease in salivary flow rate compared to controls (FVB mice; single dose of IGF1 prior to 1 Gy γ-irradiation, 30 days after exposure)	phosphorylated Akt thirty minutes following administration (Akt; 5 μg IGF1, salivary gland)	time of maximal activation of Akt after injection (Akt; 5 μg IGF1, salivary glands removed at 5, 10 and 30 minutes)	activation of Akt (immunoblotting with anti-phospho-Akt (threonine^473) antibody) (Akt; five minutes after injection of 1 μg and 5 μg IGF1)	activation of Akt (immunoblotting with anti-phospho-Akt (threonine^473) antibody) (Akt; five minutes after injection of 10 and 50 μg IGF1 per mouse)	activation of Akt (salivary acinar cells [3])	apoptosis induced by etoposide (salivary acinar cells [3])
COc1cc([C@@H]2c3cc4c(cc3[C@@H](O[C@@H]3O[C@@H]5CO[C@@H](C)O[C@H]5[C@H](O)[C@H]3O)[C@H]3COC(=O)[C@H]23)OCO4)cc(OC)c1O [etoposide]	induce apoptosis	did induce some apoptosis	resulted in the phosphorylation of ATM	–	–	–	–	–	–	–	–	–	–	–
IGF1: recombinant IGF1, activator of the Akt pathway, injected into the tail vein of mice	–	–	–	significantly decreases the number of apoptotic cells	had no effect	not a statistical difference	completely suppressed	no decrease in salivary flow rate	could still be detected	five	results in the activation of Akt	did not result in the activation of Akt	induces activation of Akt	suppresses apoptosis
